Our source for the inhibition and Inhibition values is ChEMBL document CHEMBL1123108 (J Med Chem, 1985).

The target of series [1] is T1, Aromatase (Homo sapiens, UniProt P11511).
T1 sequence (P11511 whole entry): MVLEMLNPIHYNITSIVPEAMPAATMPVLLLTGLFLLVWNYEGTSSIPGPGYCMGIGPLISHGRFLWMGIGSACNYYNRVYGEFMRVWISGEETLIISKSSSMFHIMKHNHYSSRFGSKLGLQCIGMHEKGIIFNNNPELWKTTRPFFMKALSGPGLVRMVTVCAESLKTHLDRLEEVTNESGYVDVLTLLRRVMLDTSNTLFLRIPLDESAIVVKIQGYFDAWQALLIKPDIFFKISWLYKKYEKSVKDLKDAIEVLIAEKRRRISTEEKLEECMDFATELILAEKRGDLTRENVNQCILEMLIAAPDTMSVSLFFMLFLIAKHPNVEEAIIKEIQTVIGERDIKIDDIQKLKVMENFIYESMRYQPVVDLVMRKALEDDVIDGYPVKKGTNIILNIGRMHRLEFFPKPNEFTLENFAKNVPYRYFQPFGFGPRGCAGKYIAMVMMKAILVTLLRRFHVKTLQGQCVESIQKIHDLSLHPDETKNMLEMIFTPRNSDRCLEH
The series is described as follows: Inhibition of Cytochrome P450 19A1 at 20 ug/mL.

Series [2] addresses T2, Cytochrome P450 11A1 (desmolase, cholesterol side-chain cleavage enzyme) (Bos taurus, UniProt P00189).
T2 sequence (P00189 whole entry): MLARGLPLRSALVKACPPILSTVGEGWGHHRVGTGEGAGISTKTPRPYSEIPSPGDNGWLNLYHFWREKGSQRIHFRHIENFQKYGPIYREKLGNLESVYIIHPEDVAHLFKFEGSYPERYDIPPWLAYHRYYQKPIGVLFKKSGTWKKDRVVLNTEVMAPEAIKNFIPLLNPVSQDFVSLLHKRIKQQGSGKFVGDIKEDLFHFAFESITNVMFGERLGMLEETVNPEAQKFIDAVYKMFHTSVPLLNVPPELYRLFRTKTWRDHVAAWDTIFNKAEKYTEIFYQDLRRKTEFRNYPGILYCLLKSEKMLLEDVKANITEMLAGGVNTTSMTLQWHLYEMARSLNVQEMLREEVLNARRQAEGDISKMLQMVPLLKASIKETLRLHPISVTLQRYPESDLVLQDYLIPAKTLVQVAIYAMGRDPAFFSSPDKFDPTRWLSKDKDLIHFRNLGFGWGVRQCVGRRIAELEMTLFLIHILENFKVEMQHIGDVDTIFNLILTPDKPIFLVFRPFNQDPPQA
The series is described as follows: Inhibition of bovine adrenal desmolase cytochrome P450 11A1 at 50 ug/mL. As to conditions: cattle; call rule not given here.

The target in series [3] is T3, Cholesterol side-chain cleavage enzyme, mitochondrial (Bos taurus, UniProt P00189).
T3 sequence (P00189 whole entry): T2 sequence (P00189 whole entry)
The series is described as follows: Inhibition of bovine adrenal desmolase at 50 ug/mL; None. As to conditions: cattle; at 50 µg/mL.

Series [4] addresses T1, Aromatase. The series is described as follows: Inhibition of Cytochrome P450 19A1 at 20 ug/mL; None. As to conditions: at 20 µg/mL.

By inhibition is commonly meant the drop in the measured response relative to a control, in per cent. A low value points to a response near the control.

Consider `CCC1(c2ccncc2)CCC(=O)N(N)C1=O` (configuration not stated), for which the inhibition at 20 µg/mL against Aromatase [1] stood at 27%. The same compound showed an inhibition at 50 ug/mL in series [2] of 38%.

Take `CCC1(c2cc[n+]([O-])cc2)CCC(=O)NC1=O` (configuration not stated): the Inhibition entry (in series [3]; at Aromatase [4]) was “Not Active” each time.

For the compound `CCC1(c2c(F)c(F)nc(F)c2F)CCC(=O)NC1=O` (configuration not stated), in series [3], the Inhibition result was “Not Active”. The inhibition at 20 µg/mL on Aromatase [1] was found to be 25%.

As for `CCC1(c2ccncc2)CCC(=O)NC1=O` (configuration not stated) [ROGLETIMIDE], the Inhibition entry in series [3] is “Not Active”.
